Tested on: MV-4-11 cells
Experiment: Gene expression microarray analysis (Affymetrix PrimeView) and GSEA
Type: cell-based, human
Design: RFU PODN (11730768_x_at) / Fold change /veh PODN (11730768_x_at) / RFU LINC00158 (11744669_a_at) / Fold change /veh LINC00158 (11744669_a_at) / RFU DUSP10 (11751237_a_at) / Fold change /veh DUSP10 (11751237_a_at) / RFU ID3 (11757404_x_at) / Fold change /veh ID3 (11757404_x_at) / RFU PLEKHG5 (11737974_s_at) / Fold change /veh PLEKHG5 (11737974_s_at) / RFU LRRC4B (11730491_at) / Fold change /veh LRRC4B (11730491_at) / RFU GIMAP4 (11747438_a_at) / Fold change /veh GIMAP4 (11747438_a_at) / RFU KRT8 (11758183_x_at) / Fold change /veh KRT8 (11758183_x_at) / RFU CNN1 (11734310_a_at) / Fold change /veh CNN1 (11734310_a_at) / RFU VPS37D (11726825_at) / Fold change /veh VPS37D (11726825_at) / RFU C10orf10 (11716522_x_at) / Fold change /veh C10orf10 (11716522_x_at) / RFU KIR2DL2 /// KIR2DL4 /// KIR2DL5A /// KIR2DL5B /// KIR2DS1 /// KIR2DS2 /// KIR2DS3 /// KIR2DS4 /// KIR3DL3 /// KIR3DL3 /// KIR3DS1 (11738374_at) / Fold change /veh KIR2DL2 /// KIR2DL4 /// KIR2DL5A /// KIR2DL5B /// KIR2DS1 /// KIR2DS2 /// KIR2DS3 /// KIR2DS4 /// KIR3DL3 /// KIR3DL3 /// KIR3DS1 (11738374_at) / RFU C1QL1 (11718748_at) / Fold change /veh C1QL1 (11718748_at) / RFU TMPRSS4 (11747572_a_at) / Fold change /veh TMPRSS4 (11747572_a_at) / RFU HAMP (11756126_x_at) / Fold change /veh HAMP (11756126_x_at) / RFU RNFT2 (11725882_a_at) / Fold change /veh RNFT2 (11725882_a_at) / RFU NR4A2 (11747474_a_at) / Fold change /veh NR4A2 (11747474_a_at) / RFU ABCC12 (11746883_a_at) / Fold change /veh ABCC12 (11746883_a_at) / RFU TMEM136 (11760407_x_at) / Fold change /veh TMEM136 (11760407_x_at) / RFU CLDN22 /// WWC2 (11732394_at) / Fold change /veh CLDN22 /// WWC2 (11732394_at) / RFU HLA-DPB1 (11760878_x_at) / Fold change /veh HLA-DPB1 (11760878_x_at) / RFU SPINT1 (11716480_a_at) / Fold change /veh SPINT1 (11716480_a_at) / RFU GAP43 (11754022_s_at) / Fold change /veh GAP43 (11754022_s_at) / RFU A4GNT (11735810_at) / Fold change /veh A4GNT (11735810_at) / RFU PRB3 (11715151_x_at) / Fold change /veh PRB3 (11715151_x_at) / RFU TUBB4B (11761932_at) / Fold change /veh TUBB4B (11761932_at) / RFU CAPN14 (11732068_a_at) / Fold change /veh CAPN14 (11732068_a_at) / RFU TMCC2 (11721928_a_at) / Fold change /veh TMCC2 (11721928_a_at) / RFU IRGQ (11745062_a_at) / Fold change /veh IRGQ (11745062_a_at) / RFU FAM174B (11720279_a_at) / Fold change /veh FAM174B (11720279_a_at) / RFU TMPRSS4 (11748680_a_at) / Fold change /veh TMPRSS4 (11748680_a_at) / RFU FAM212B (11763350_a_at) / Fold change /veh FAM212B (11763350_a_at) / RFU PLEKHG5 (11743358_a_at) / Fold change /veh PLEKHG5 (11743358_a_at) / RFU ZSCAN30 (11745921_a_at) / Fold change /veh ZSCAN30 (11745921_a_at) / RFU CMKLR1 (11741424_a_at) / Fold change /veh CMKLR1 (11741424_a_at) / RFU LOC101060620 /// MAPK8IP1 (11723275_at) / Fold change /veh LOC101060620 /// MAPK8IP1 (11723275_at) / RFU SPTSSB (11747773_x_at) / Fold change /veh SPTSSB (11747773_x_at) / RFU PRSS12 (11739890_at) / Fold change /veh PRSS12 (11739890_at) / RFU BIN1 (11741810_x_at) / Fold change /veh BIN1 (11741810_x_at) / RFU WNT11 (11732464_a_at) / Fold change /veh WNT11 (11732464_a_at) / RFU C10orf10 (11716521_a_at) / Fold change /veh C10orf10 (11716521_a_at) / RFU C5orf56 (11738089_at) / Fold change /veh C5orf56 (11738089_at) / RFU CYB561 (11721691_x_at) / Fold change /veh CYB561 (11721691_x_at) / RFU ANKRD19P (11752326_a_at) / Fold change /veh ANKRD19P (11752326_a_at) / RFU OR2T12 /// OR2T33 /// OR2T8 (11738714_s_at) / Fold change /veh OR2T12 /// OR2T33 /// OR2T8 (11738714_s_at) / RFU VCAN (11748164_a_at) / Fold change /veh VCAN (11748164_a_at) / RFU JSRP1 (11732532_at) / Fold change /veh JSRP1 (11732532_at) / RFU KRTAP10-11 (11738290_x_at) / Fold change /veh KRTAP10-11 (11738290_x_at) / RFU MYO3A (11730013_a_at) / Fold change /veh MYO3A (11730013_a_at) / RFU EBF3 (11725865_a_at) / Fold change /veh EBF3 (11725865_a_at) / RFU CAMK2N1 (11719241_x_at) / Fold change /veh CAMK2N1 (11719241_x_at) / RFU C5orf56 (11738088_a_at) / Fold change /veh C5orf56 (11738088_a_at) / RFU OLFML3 (11715873_a_at) / Fold change /veh OLFML3 (11715873_a_at) / RFU LOC100653217 /// NTM (11731650_a_at) / Fold change /veh LOC100653217 /// NTM (11731650_a_at) / RFU MAPK11 (11762145_a_at) / Fold change /veh MAPK11 (11762145_a_at) / RFU FIZ1 (11724087_x_at) / Fold change /veh FIZ1 (11724087_x_at) / RFU OASL (11726364_x_at) / Fold change /veh OASL (11726364_x_at) / RFU SOX15 (11748057_x_at) / Fold change /veh SOX15 (11748057_x_at) / RFU CD79A (11719716_a_at) / Fold change /veh CD79A (11719716_a_at) / RFU HIST1H1D (11736915_at) / Fold change /veh HIST1H1D (11736915_at) / RFU CASKIN2 (11723855_a_at) / Fold change /veh CASKIN2 (11723855_a_at) / RFU LOC730098 (11760151_x_at) / Fold change /veh LOC730098 (11760151_x_at) / RFU OR4N2 (11742367_at) / Fold change /veh OR4N2 (11742367_at) / RFU PRRT2 (11749266_a_at) / Fold change /veh PRRT2 (11749266_a_at) / RFU SNX32 (11753110_a_at) / Fold change /veh SNX32 (11753110_a_at) / RFU CDHR5 (11726645_a_at) / Fold change /veh CDHR5 (11726645_a_at) / RFU RCAN1 (11760418_a_at) / Fold change /veh RCAN1 (11760418_a_at) / RFU FAM167A (11723789_a_at) / Fold change /veh FAM167A (11723789_a_at) / RFU FAM26E (11764081_at) / Fold change /veh FAM26E (11764081_at) / RFU ISYNA1 (11749810_s_at) / Fold change /veh ISYNA1 (11749810_s_at) / RFU ACY1 (11761880_at) / Fold change /veh ACY1 (11761880_at) / RFU 11764098_at / Fold change /veh 11764098_at / RFU SAMD14 (11745864_x_at) / Fold change /veh SAMD14 (11745864_x_at) / RFU NPB (11741838_a_at) / Fold change /veh NPB (11741838_a_at) / RFU TMPRSS6 (11731388_a_at) / Fold change /veh TMPRSS6 (11731388_a_at) / RFU KRTAP10-2 (11738614_at) / Fold change /veh KRTAP10-2 (11738614_at) / RFU ARHGAP8 /// PRR5-ARHGAP8 (11727945_x_at) / Fold change /veh ARHGAP8 /// PRR5-ARHGAP8 (11727945_x_at) / RFU KRTAP5-7 /// NADSYN1 (11734609_at) / Fold change /veh KRTAP5-7 /// NADSYN1 (11734609_at) / RFU RASL12 (11751679_a_at) / Fold change /veh RASL12 (11751679_a_at) / RFU CDKN2B (11736163_a_at) / Fold change /veh CDKN2B (11736163_a_at) / RFU PRF1 (11729649_at) / Fold change /veh PRF1 (11729649_at) / RFU, ZNF638 /// ZNF638-IT1 / Fold change vs veh, ZNF638 /// ZNF638-IT1 / RFU, PANK3 / Fold change vs veh, PANK3 / RFU, SH3YL1 / Fold change vs veh, SH3YL1 / RFU, ZEB2 / Fold change vs veh, ZEB2 / RFU, NRIP1 / Fold change vs veh, NRIP1 / RFU, PTTG1IP / Fold change vs veh, PTTG1IP / RFU, CAPN2 / Fold change vs veh, CAPN2 / RFU, MED14 / Fold change vs veh, MED14 / RFU, SNORA58 / Fold change vs veh, SNORA58 / RFU, C1orf63 / Fold change vs veh, C1orf63 / RFU, LRRFIP1 / Fold change vs veh, LRRFIP1 / RFU, NDUFAF7 / Fold change vs veh, NDUFAF7 / RFU, SLC12A2 / Fold change vs veh, SLC12A2 / RFU, IBTK / Fold change vs veh, IBTK / RFU, ESF1 / Fold change vs veh, ESF1 / Fold change vs veh, TMEM50B / RFU, TAOK1 / Fold change vs veh, TAOK1 / RFU, ACBD3 / Fold change vs veh, ACBD3 / RFU, TMA16 / Fold change vs veh, TMA16 / RFU, RWDD3 / Fold change vs veh, RWDD3 / RFU, BCAT1 / Fold change vs veh, BCAT1 / RFU, EDEM3 / Fold change vs veh, EDEM3 / RFU, TMEM33 / Fold change vs veh, TMEM33 / RFU, WDR75 / Fold change vs veh, WDR75 / RFU, AHCTF1 / Fold change vs veh, AHCTF1 / RFU, TFRC / Fold change vs veh, TFRC / RFU, ZDHHC17 / Fold change vs veh, ZDHHC17 / RFU, NOM1 / Fold change vs veh, NOM1 / RFU, ARL8B / Fold change vs veh, ARL8B / RFU, ZBTB11 / Fold change vs veh, ZBTB11 / RFU, TAMM41 / Fold change vs veh, TAMM41 / RFU, KIAA1704 /// LOC100996395 / Fold change vs veh, KIAA1704 /// LOC100996395 / RFU, ING1 / Fold change vs veh, ING1 / RFU, TRMT61B / Fold change vs veh, TRMT61B / RFU, FUBP3 / Fold change vs veh, FUBP3 / RFU, TP53 / Fold change vs veh, TP53 / RFU, TNKS2 / Fold change vs veh, TNKS2 / RFU, ZFP14 / Fold change vs veh, ZFP14 / RFU, ACTR2 / Fold change vs veh, ACTR2 / RFU, PPP3R1 / Fold change vs veh, PPP3R1 / RFU, PIK3R1 / Fold change vs veh, PIK3R1 / RFU, HNRNPA1 / Fold change vs veh, HNRNPA1 / RFU, RNF170 / Fold change vs veh, RNF170 / RFU, ZNF28 / Fold change vs veh, ZNF28 / RFU, RNGTT / Fold change vs veh, RNGTT / RFU, OGT / Fold change vs veh, OGT / RFU, BRD1 / Fold change vs veh, BRD1 / RFU, MARS / Fold change vs veh, MARS / RFU, ZNF655 / Fold change vs veh, ZNF655 / RFU, FAHD1 / Fold change vs veh, FAHD1 / RFU, BDP1 / Fold change vs veh, BDP1 / RFU, LRRCC1 / Fold change vs veh, LRRCC1 / RFU, ARID1A / Fold change vs veh, ARID1A / RFU, ZNF146 / Fold change vs veh, ZNF146 / RFU, ZNF330 / Fold change vs veh, ZNF330 / RFU, GPN3 / Fold change vs veh, GPN3 / RFU, C9orf123 / Fold change vs veh, C9orf123 / RFU, N4BP2L2 / Fold change vs veh, N4BP2L2 / RFU, ARFIP1 / Fold change vs veh, ARFIP1 / RFU, FAM179B / Fold change vs veh, FAM179B / RFU, BCL10 / Fold change vs veh, BCL10 / RFU, UHRF1BP1L / Fold change vs veh, UHRF1BP1L / RFU, BET1 / Fold change vs veh, BET1 / RFU, CNOT2 / Fold change vs veh, CNOT2 / RFU, ZNF268 / Fold change vs veh, ZNF268 / Fold change vs veh, ZNF507 / RFU, DGCR2 / Fold change vs veh, DGCR2 / RFU, WDSUB1 / Fold change vs veh, WDSUB1 / Fold change vs veh, HSP90B1 /// MIR3652 / RFU, ADSS / Fold change vs veh, ADSS / RFU, GK / Fold change vs veh, GK / RFU, ZNF148 / Fold change vs veh, ZNF148 / RFU, TAF9 / Fold change vs veh, TAF9 / RFU, SLC1A5 / Fold change vs veh, SLC1A5 / RFU, SLMO2 / Fold change vs veh, SLMO2 / RFU, ABCC4 / Fold change vs veh, ABCC4 / RFU, LOC101060439 /// RAP1B / Fold change vs veh, LOC101060439 /// RAP1B / RFU, RFX7 / Fold change vs veh, RFX7 / RFU, GTPBP10 / Fold change vs veh, GTPBP10 / RFU, CNEP1R1 / Fold change vs veh, CNEP1R1 / RFU, BIVM-ERCC5 /// ERCC5 / Fold change vs veh, BIVM-ERCC5 /// ERCC5 / RFU, ILF3 / Fold change vs veh, ILF3 / RFU 11762660_at / Fold change /veh 11762660_at / RFU VCAN (11757783_s_at) / Fold change /veh VCAN (11757783_s_at) / RFU DDX43 (11728927_at) / Fold change /veh DDX43 (11728927_at) / RFU KRT8 (11758188_x_at) / Fold change /veh KRT8 (11758188_x_at) / RFU NKD1 (11759106_at) / Fold change /veh NKD1 (11759106_at) / RFU SRD5A1 (11742802_a_at) / Fold change /veh SRD5A1 (11742802_a_at) / RFU TPSAB1 /// TPSB2 (11721975_s_at) / Fold change /veh TPSAB1 /// TPSB2 (11721975_s_at) / RFU GSTM3 (11746129_a_at) / Fold change /veh GSTM3 (11746129_a_at) / RFU IL23R (11737362_x_at) / Fold change /veh IL23R (11737362_x_at) / RFU TMEM51 (11727254_a_at) / Fold change /veh TMEM51 (11727254_a_at) / RFU PIWIL2 (11732686_x_at) / Fold change /veh PIWIL2 (11732686_x_at) / RFU ORM1 (11744905_x_at) / Fold change /veh ORM1 (11744905_x_at) / RFU CCDC152 (11743942_at) / Fold change /veh CCDC152 (11743942_at) / RFU ECM1 (11717891_a_at) / Fold change /veh ECM1 (11717891_a_at) / RFU IL23R (11748794_a_at) / Fold change /veh IL23R (11748794_a_at) / RFU TNFAIP8L3 (11732012_x_at) / Fold change /veh TNFAIP8L3 (11732012_x_at) / RFU MBOAT4 (11741988_at) / Fold change /veh MBOAT4 (11741988_at) / RFU 11764193_at / Fold change /veh 11764193_at / RFU TMEM53 (11763286_at) / Fold change /veh TMEM53 (11763286_at) / RFU MAGEB2 (11727129_at) / Fold change /veh MAGEB2 (11727129_at) / RFU TMEM200A (11744735_a_at) / Fold change /veh TMEM200A (11744735_a_at) / RFU CCDC152 (11751479_a_at) / Fold change /veh CCDC152 (11751479_a_at) / RFU FAM211A (11726209_a_at) / Fold change /veh FAM211A (11726209_a_at) / RFU RGS16 (11746705_a_at) / Fold change /veh RGS16 (11746705_a_at) / RFU VCAN (11755009_s_at) / Fold change /veh VCAN (11755009_s_at) / RFU RHOB (11743442_s_at) / Fold change /veh RHOB (11743442_s_at) / RFU RGS16 (11720943_a_at) / Fold change /veh RGS16 (11720943_a_at) / RFU RGS16 (11720944_at) / Fold change /veh RGS16 (11720944_at) / RFU, VPS4B / Fold change vs veh, VPS4B / RFU, CREB1 / Fold change vs veh, CREB1 / RFU, DNAJC13 / Fold change vs veh, DNAJC13 / RFU, GNAQ / Fold change vs veh, GNAQ / RFU, CDK5R1 / Fold change vs veh, CDK5R1 / RFU, ZRANB3 / Fold change vs veh, ZRANB3 / RFU, CUL4A / Fold change vs veh, CUL4A / RFU, CCNY / Fold change vs veh, CCNY / RFU, UFL1 / Fold change vs veh, UFL1 / RFU, COG3 / Fold change vs veh, COG3 / RFU, DIAPH2 / Fold change vs veh, DIAPH2 / RFU, SKA2 / Fold change vs veh, SKA2 / RFU, AFF3 / Fold change vs veh, AFF3 / RFU, LMF1 / Fold change vs veh, LMF1 / RFU, IPO11 / Fold change vs veh, IPO11 / RFU, DFFB / Fold change vs veh, DFFB / RFU, FOXP1 / Fold change vs veh, FOXP1 / RFU, CARD8 / Fold change vs veh, CARD8 / RFU, STRN3 / Fold change vs veh, STRN3 / RFU, ADK / Fold change vs veh, ADK / RFU, RASSF2 / Fold change vs veh, RASSF2 / RFU, WIPF1 / Fold change vs veh, WIPF1 / RFU, LARP1B / Fold change vs veh, LARP1B / RFU, RASA1 / Fold change vs veh, RASA1 / RFU, RB1 / Fold change vs veh, RB1 / RFU, PPFIA1 / Fold change vs veh, PPFIA1 / RFU, MAT2A / Fold change vs veh, MAT2A / RFU, CCT5 / Fold change vs veh, CCT5 / RFU, WDR92 / Fold change vs veh, WDR92 / RFU, CUX1 / Fold change vs veh, CUX1 / RFU, TTC7A / Fold change vs veh, TTC7A / RFU, TMEM135 / Fold change vs veh, TMEM135 / RFU, DEPTOR / Fold change vs veh, DEPTOR / RFU, CPM / Fold change vs veh, CPM / RFU, DNAJB6 / Fold change vs veh, DNAJB6 / RFU, CACNA2D3 / Fold change vs veh, CACNA2D3 / RFU, DTX4 / Fold change vs veh, DTX4 / RFU, TFCP2 / Fold change vs veh, TFCP2 / RFU, GMCL1 /// GMCL1P1 / Fold change vs veh, GMCL1 /// GMCL1P1 / RFU, AEBP2 / Fold change vs veh, AEBP2 / RFU, SNHG1 /// SNORD22 /// SNORD25 /// SNORD26 /// SNORD27 /// SNORD28 /// SNORD29 /// SNORD31 / Fold change vs veh, SNHG1 /// SNORD22 /// SNORD25 /// SNORD26 /// SNORD27 /// SNORD28 /// SNORD29 /// SNORD31 / Fold change (Aza/veh), C12orf56 (ProbeSet 11735607_a_at) / Fold change (ACY-1035/veh), C12orf56 (ProbeSet 11735607_a_at) / Fold change (Aza/veh), FGFR1OP (ProbeSet 11751329_s_at) / Fold change (ACY-1035/veh), FGFR1OP (ProbeSet 11751329_s_at) / Fold change (Aza/veh), VPS36 (ProbeSet 11739960_a_at) / Fold change (ACY-1035/veh), VPS36 (ProbeSet 11739960_a_at) / RFU SYPL1 (11715823_x_at) / Fold change /veh SYPL1 (11715823_x_at) / RFU IGFBP7 (11715501_s_at) / Fold change /veh IGFBP7 (11715501_s_at) / RFU REEP3 (11722064_at) / Fold change /veh REEP3 (11722064_at) / RFU IGLL1 (11728026_x_at) / Fold change /veh IGLL1 (11728026_x_at): dose or concentration left out as unconfirmed
Conditions: ProbeSet 11732277_a_at; LIST D

Nc1ncn([C@@H]2O[C@H](CO)[C@@H](O)[C@H]2O)c(=O)n1 [azacitidine]
RFU, FOXP1: 363.93 RFU
